In publication PMC8869097, “Benzothiazole Derivatives as Multifunctional Antioxidant Agents for Skin Damage: Structure–Activity Relationship of a Scaffold Bearing a Five-Membered Ring System” (Antioxidants, 2022):
Like-named read-outs stand apart in the source and are kept apart here.

Columns and labels:
[1] = Filtering parameters (in vitro SPF, UVAPF, UVA/UVB, critical wavelength) of W/O formulations on PMMA plates; type: physicochemical
Method: The synthesized derivatives were incorporated at increasing concentrations (1%, 2% and 3%) in a topical W/O cosmetic standard formulation, to evaluate the filtering parameters, having the following ingredients composition.
INCI (International Nomenclature Cosmetic Ingredients): aqua, glycerin, Euxyl PE 9010, xanthan gum, ceteareth-12, ceteareth-20, sterearic acid, butylhydroxytoluene, myritol, PEG-7 glyceryl cocoate and 10% sodium solution.
Briefly, the protocol is to finger spread 32.5 mg of each formulation onto 25 cm2 PMMA plates. Each formulation was tested in triplicate by recording five measurements for each dish, after incubation in the dark for 15–30 min at room temperature. UV transmittance data were recorded in the range 290–400 nm using a UV-VIS spectrophotometer.
Blank plate, SPF, UVA-PF and Critical Wavelength were achieved through SPF Calculator Software (version 2.1), Shimadzu, Milan, Italy) as previously reported.
For the determination of the SPF in vitro of the samples in formulation it was decided to use an internal method, developed by us previously and based on the adaptation of the ISO 24443: 2012 [38]. The transmittance spectrum, processed with a specific software (SPF Calculator), made it possible to obtain the SPF, UVAPF, critical lambda and UVA/UVB ratio values of the formulations containing the selected active ingredients (Table 1).

[2] = system: Trichophyton mentagrophytes; experiment: Antidermatophyte activity, plaque growth inhibition; type: cell-based, Trichophyton mentagrophytes CBS 160.66; details: read-out: % Inhibition Growth T. mentagrophytes
Method: (§1) The dermatophytes used in this study were Epidermophyton floccosum var. floccosum (Netherlands) CBS 358.93 strain, Trichophyton tonsurans (Netherlands) CBS 483.76 strain, Trichophyton mentagrophytes (Netherlands) CBS 160.66 strain, Microsporum canis (Iran) CBS 131,110 strain, and Microsporum gypseum (Iran) CBS 130,948 strain. All dermatophytes were maintained at 4 °C as agar slants on SDA. Candida albicans (ATCC 10231) was maintained at 4 °C on SDA plate.
(§2) The in vitro antifungal activity against the five selected dermatophytes was evaluated, as previously described, using the plaque growth inhibition method. All compounds were evaluated at the final concentration of 100 µg/mL. The percentages of growth inhibition according to Equation (5) were calculated as the average of three different experiments. I = [(C − T)/C] × 100%,(5) where I is the percentage value of growth inhibition, C is the measure of the diameter of the control circular mycelial inoculum (mm) and T is the extended diameter of the treated mycelial inoculum (mm).
(§3) All synthesized benzothiazole derivatives were evaluated to evaluate their in vitro antifungal activity against the five pathogenic dermatophytes that cause the most common dermatomycoses: Microsporum gypseum, Microsporum canis, Trichophyton mentagrophytes, Trichophyton tonsurans and Epidermophyton floccosum. All compounds were tested at a concentration of 100 µg/mL in DMSO, to evaluate the ability to inhibit the growth of dermatophyte cultures in Sabouraud Dextrose Agar (SDA). Briefly, room temperature incubation was performed and dermatophyte inhibition assessed by measuring the colony diameter at each disc for 7 days. The results are shown in Table 3 and were determined as the average of three different experiments.

[3] = UV spectra of compounds in solution (filtering parameters); type: physicochemical
Method: The evaluation of the sun protection parameters has been carried out using a UV-Vis spectrophotometer. The absorbance of the solutions of the test compounds dissolved in the different solvents (DMSO, MeOH, DMSO–H2O 4:6, DMSO–H2O 6:4, HE) at a concentration of 0.0015 (±0.000005)% was recorded in the range 290–400 nm using a 1 cm quartz cell at 1 nm intervals. It was decided to evaluate the profile of the compounds in the Peg-7 Glyceryl Cocoate (HE) oil, which is the emollient of choice to solubilize the compounds in a formulation suitable for in vivo analysis. Wavelength absorbance is in relationship with transmittance (T (λ)) from Equation (2) A (λ) = […](2) where T (λ) is the fraction of incident irradiance that is transmitted through a sample.
The three parameters were determined, respectively, in DMSO and in methanol in order to perform a comparison (Table S1).
Since DMSO is a solvent with characteristics very close to those of an oil, the analysis was also carried out in solutions that mimic the possible conditions of a formulation. For this reason, the 4:6 and 6:4 proportions of DMSO–H2O were chosen to evaluate the choice of an oil-in-water or water-in-oil emulsion.

[4] = In vitro DPPH test; details: compounds at 1 mg/mL, 30 min, 517 nm
Method: The assay performed is adapted from Wang et al.. Briefly, 0.750 mL of 1 mg/mL solutions of the tested compounds was treated with 1.5 mL of DPPH solution in MeOH. The absorbance of samples, stored for 30 min at room temperature in the dark, was read on the spectrophotometer at 517 nm. The values obtained were converted into a radical inhibition percentage (%) by Equation (1). DPPH radical scavenging capacity (%) = [1 − A1/A0] × 100%(1) where A0 and A1 were, respectively, the absorbance without and with the sample. Subsequently, the compound with the best profile was tested in order to determine the IC50 (µg/mL). A linear regression plot is performed to calculate the actual sample concentration required to eliminate 50% of the DPPH free radicals.
The antioxidant activity of a molecule is very important and, if present, it can be synergistic with the SPF described above in reducing the damage that is ROS-induced by UV rays. For this reason, the synthesized compounds were assayed in vitro to assess their antioxidant profiles by means of the DPPH and FRAP assays (Table 2). Regarding the ability to scavenge the stable radical 2,2-diphenyl-1-picrylhydrazyl (DPPH), it was decided to investigate first the compounds synthesized at the same concentration (1 mg/mL) and evaluate the percentage of inhibition of the radical DPPH.

[5] = system: Microsporum gypseum; experiment: Antidermatophyte activity, plaque growth inhibition; type: cell-based, Microsporum gypseum CBS 130,948; details: Nannizzia gypsea, read-out: % Inhibition Growth M. gypseum
Method: as §1, §2, §3

[6] = Ferric Reducing Antioxidant Power assay (FRAP); details: 593 nm
Method: The FRAP assay is a widely used method based on a colorimetric reaction linked to a redox and on the use of antioxidants as reducing agents.
The test evaluates the capacity of a sample to reduce ferric to ferrous ions in the presence of TPTZ (2,4,6-tripyridyl-s-triazine). The reaction mixture consists of 0.1 M acetate buffer pH 3.6, 10 mmol/L TPTZ in 40 mmol/HCl, and 20 mmol/L ferric chloride in the ratio 10/1/1 (v:v:v) as described by Benzie et al.. A total of 1.9 mL of reagent was added to 0.1 mL of suitably diluted sample or solvent. The absorbance values were measured using the UV-VIS spectrophotometer at 593 nm and expressed as µmol TE/g compound.

[7] = system: Microsporum canis; experiment: Antidermatophyte activity, plaque growth inhibition; type: cell-based, Microsporum canis CBS 131,110; details: read-out: % Inhibition Growth M. canis
Method: as §1, §2, §3

[8] = system: Epidermophyton floccosum; experiment: as above; type: cell-based, Epidermophyton floccosum var. floccosum CBS 358.93; details: read-out: % Inhibition Growth E. floccosum
Method: as §1, §2, §3

[9] = system: Trichophyton tonsurans; experiment: as above; type: cell-based, Trichophyton tonsurans CBS 483.76; details: read-out: % Inhibition Growth T. tonsurans
Method: as §1, §2, §3

Row | SMILES | A (absorbance) ([3]; DMSO) | ε (molar extinction coefficient) ([3]; DMSO) | λmax ([3]; DMSO) | A (absorbance) ([3]; MeOH) | ε (molar extinction coefficient) ([3]; MeOH) | DPPH (% Inhibition) [4] | FRAP [6] | melting point | inhibition at 100 µg/mL ([2]; 100 μg/mL, SDA) | λmax ([3]; MeOH) | inhibition at 100 µg/mL ([5]; 100 μg/mL, SDA) | inhibition at 100 µg/mL ([7]; 100 μg/mL, SDA) | inhibition at 100 µg/mL ([8]; 100 μg/mL, SDA) | inhibition at 100 µg/mL ([9]; 100 μg/mL, SDA) | other results
1 | O=S(=O)(O)c1ccc2[nH]c(-c3ccccc3)nc2c1 [PBSA, 2-Phenyl-1H-benzo[d]imidazole-5-sulfonic acid, reference compound] | 1.130 | 23839.66 | 310.50 nm | 1.460 | 30801.69 | <LOQ * | <LOQ * |  |  |  |  |  |  |  | SPF ([1]; 1% in W/O formulation): 3.22; UVAPF ([1]; 1% in W/O formulation): 0.94; λc ([1]; 1% in W/O formulation): 319 nm; SPF ([1]; 2% in W/O formulation): 4.63; UVAPF ([1]; 2% in W/O formulation): 0.94; λc ([1]; 2% in W/O formulation): 321 nm; SPF ([1]; 3% in W/O formulation): 5.09; UVAPF ([1]; 3% in W/O formulation): 1.02; λc ([1]; 3% in W/O formulation): 324 nm; inhibition at 100 µg/mL [2]: < 0%; inhibition at 100 µg/mL [5]: 9.44 ± 0.35%; inhibition at 100 µg/mL [7]: < 0%; inhibition at 100 µg/mL [8]: 7.28 ± 0.56%; inhibition at 100 µg/mL [9]: < 0%
2 | O=C(O)c1ccc2nc(-c3cccs3)sc2c1 [Compound 10b, 2-(Thiophen-2-Yl)benzothiazole-6-Carboxylic Acid] | 1.160 | 17818.74 | 340.00 nm | 1.140 | 21268.66 | 46.04 ± 0.07% | 133.91 ± 8.13 μmolTE/g | > 250 °C | 14.2 ± 1.01% | 334.57 nm | 18.5 ± 1.23% | 27.6 ± 1.47% | 28.3 ± 1.04% | 65.5 ± 1.58% | 
3 | O=C(O)c1ccc2nc(-c3ccco3)sc2c1 [Compound 9b, 2-(Furan-2-Yl)benzothiazole-6-Carboxylic Acid] | 1.36 | 23901.58 | 331.90 nm | 1.02 | 19318.18 | 9.49 ± 0.04% | 66.07 ± 8.23 μmolTE/g | > 250 °C | < 0% | 327.57 nm | 18.1 ± 0.97% | 14.5 ± 0.83% | 5.48 ± 0.12% | 29.8 ± 1.23% | 
4 | NS(=O)(=O)c1ccc2nc(-c3ccco3)sc2c1 [Compound 9c, 2-(Furan-2-Yl)benzothiazole-6-Sulfonamide] | 0.59 | 10332.75 | 329.00 nm | 0.740 | 13805.97 | 64.92 ± 0.91% | 150.34 ± 11.01 μmolTE/g | > 250 °C | 10.97 ± 0.08% | 325.30 nm | 17.82 ± 0.06% | 19.5 ± 1.2% | 36.4 ± 1.25% | < 0% | 
5 | O=C(O)/C=C/c1ccc(O)c(O)c1 [Caffeic acid, reference compound] |  |  |  |  |  | 80.15 ± 1.24% | 10125.48 ± 32.87 μmolTE/g |  |  |  |  |  |  |  | 
6 | NS(=O)(=O)c1ccc2nc(-c3ccc[nH]3)sc2c1 [Compound 8c, 2-(1H-Pyrrol-2-Yl)benzothiazole-6-Sulfonamide] | 0.700 | 13944.22 | 344.37 nm | 0.760 | 13263.53 | 45.24 ± 2.78% | 119.12 ± 1.49 μmolTE/g | > 250 °C | 2.36 ± 0.17% | 341.40 nm | 23.1 ± 0.48% | 23.3 ± 0.86% | 24.7 ± 0.71% | 2.25 ± 0.03% | 
